Test results published in patent US10227331B2 (priority 2015, dated 2019).

Tests used:
[1] = biological target: NDM-1 (Klebsiella pneumoniae, UniProt C7C422); assay: biochemical; type: biochemical; settings: CCF2-FA substrate, 2 hours at 25° C; read-out: NDM-1 IC50
Experimental: (§1) Enzyme Activity: Determination of IC50
(§2) The Class B enzyme activities were measured in the presence of the test inhibitor in a fluorescence assay against a commercially available substrate consisting of a cephalosporin core linking 7-hydroxycoumarin to fluorescein (CCF2-FA). […] In a 384-well microplate, the test inhibitor was incubated with the metallo-β-lactamase enzyme and the substrate for 2 hours at 25° C. […] The IC50 value was determined from semi-logarithmic plots of enzyme inhibition versus inhibitor concentration, with a curve generated using a 4-parameter fit.

[2] = biological target: IMP-1 (Serratia marcescens, UniProt P52699); assay: biochemical; type: biochemical; settings: CCF2-FA substrate, 2 hours at 25° C; read-out: IMP-1 IC50
Chain of IMP-1 (P52699 whole entry, looked up, species assumed): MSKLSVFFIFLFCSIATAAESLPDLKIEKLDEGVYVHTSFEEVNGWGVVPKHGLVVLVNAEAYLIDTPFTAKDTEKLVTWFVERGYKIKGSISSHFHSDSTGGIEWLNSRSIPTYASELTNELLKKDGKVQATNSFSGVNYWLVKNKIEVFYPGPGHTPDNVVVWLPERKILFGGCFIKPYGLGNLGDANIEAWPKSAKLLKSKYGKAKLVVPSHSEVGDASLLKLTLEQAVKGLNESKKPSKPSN
Experimental: as §1, §2

[3] = system: P. aeruginosa expressing IMP-1, efflux+ (MB9798); type: cell-based, Pseudomonas aeruginosa; settings: for P. aeruginosa expressing IMP-1, efflux+ (MB9798) MITC95: imipenem at 2 μg/mL, in the presence of a class A, C, D serine β-lactamase inhibitor closely related to relebactam; for Efflux ratio: ratio MITC95 PA_9798/MITC95 PA_9799
Description: (§3) The strain background is Pseudomonas aeruginosa PAO1.

[4] = system: P. aeruginosa expressing IMP-1, efflux− (MB9799); assay: Efflux: concentration of MBL inhibitor which restores susceptibility to imipenem; type: cell-based, Pseudomonas aeruginosa; settings: imipenem at 2 μg/mL, in the presence of a class A, C, D serine β-lactamase inhibitor closely related to relebactam
Description: as §3

[5] = biological target: VIM-1 (Pseudomonas aeruginosa (strain ATCC 15692 / DSM 22644 / CIP 104116 / JCM 14847 / LMG 12228 / 1C / PRS 101 / PAO1), UniProt A0A0F7KYQ8); assay: biochemical; settings: CCF2-FA substrate, 2 hours at 25° C
Experimental: as §1, §2

[6] = system: Klebsiella pneumoniae expressing VIM-1 (IHMA599644); type: cell-based; settings: with imipenem 1 μg/ml, 95% inhibition of bacterial growth; for Klebsiella pneumoniae MITC95: VIM-1 (IHMA599644)
Experimental: (§4) Antibiotic Potentiation Activity: Determination of Synergistic Concentration
(§5) The bacterial strains tested included the clinical strains Escherichia coli expressing NDM-1 (CLB30005, CLB30016), Serratia marcescens expressing IMP-1 (CL5741), and Klebsiella pneumoniae expressing VIM-1 (IHMA599644). Inhibitor activity was measured in the presence and absence of imipenem in a 384-well microplate.
(§6) The clinical strains CLB30016, CL5741 and IHMA599644 were grown on trypticase soy agar containing 5% sheep's blood. The bacteria on agar plates were incubated at 35° C. with humidity overnight. The following day, individual colonies from each clinical strain were picked and resuspended in 5 ml saline to attain an OD600 of […], for CLB30016, CL5741 and IHMA599644, respectively. These were further diluted 1:100 into 1.1×CAMHB and used to inoculate the test wells as described below.
(§7) Imipenem in 10 mM 3-(N-morpholino)propanesulfonic acid (MOPS, pH 7) was stored in single use aliquots at −80° C. […] On the day of the assay, 4 μl of antibiotic was added to 45 ul of bacteria followed by 1 μl of test compound and mixed by pipetting and with an orbital shaker. The concentration of antibiotic used in the assay was 1 μg/ml. Microplates were covered and incubated at 35° C. for 22 hours to 24 hours. At the end of the incubation, absorbance was determined using a spectrophotometer.
(§8) For example, in general, the compounds of Examples 1-379 were determined to restore susceptibility to imipenem for one or more of the test organisms at concentrations of 100 μM or less.

[7] = system: Serratia marcescens expressing IMP-1 (CL5741); type: cell-based; settings: with imipenem 1 μg/ml, 95% inhibition of bacterial growth; for Serratia marcescens MITC95: IMP-1 (CL5741)
Experimental: as §4, §5, §6, §7, §8

[8] = system: Escherichia coli expressing NDM-1 (CLB30005, CLB30016); type: cell-based; settings: with imipenem 1 μg/ml, 95% inhibition of bacterial growth; for Escherichia coli MITC95: NDM-1 (CLB30016)
Experimental: as §4, §5, §6, §7, §8

Chain of NDM-1 (C7C422 whole entry, looked up, species assumed): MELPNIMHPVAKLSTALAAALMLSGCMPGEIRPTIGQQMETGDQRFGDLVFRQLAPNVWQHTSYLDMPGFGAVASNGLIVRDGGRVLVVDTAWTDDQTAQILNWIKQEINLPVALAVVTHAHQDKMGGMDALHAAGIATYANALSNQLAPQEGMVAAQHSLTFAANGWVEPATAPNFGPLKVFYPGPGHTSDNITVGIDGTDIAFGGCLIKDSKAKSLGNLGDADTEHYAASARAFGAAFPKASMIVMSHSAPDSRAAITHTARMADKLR

## Nc1nc2cccc(-c3ccc(S(=O)(=O)C4CNC4)c(S(N)(=O)=O)c3-c3nn[nH]n3)c2s1 [Example 26, 3-(2-aminobenzo[d]thiazol-7-yl)-6-(azetidin-3-ylsulfonyl)-2-(2H-tetrazol-5-yl)benzenesulfonamide]
[1]
  IC50: 0.0286 nM
[2]
  IC50: 0.66 nM
[3]
  P. aeruginosa expressing IMP-1, efflux+ (MB9798) MITC95: 3.125 µM
  Efflux ratio: 2.00
[4]
  P. aeruginosa expressing IMP-1, efflux− (MB9799) MITC95: 1.563 µM
[5]
  IC50: 0.16 nM
[6]
  Klebsiella pneumoniae expressing VIM-1 (IHMA599644) MITC95: 3.125 µM
[7]
  Serratia marcescens expressing IMP-1 (CL5741) MITC95: 3.125 µM
[8]
  Escherichia coli expressing NDM-1 (CLB30016) MITC95: 1.563 µM

## C[C@@H](N)CS(=O)(=O)c1ccc(-c2cccc3c2nc(N)n3C)c(-c2nn[nH]n2)c1S(N)(=O)=O [Example 275, 3-(2-amino-1-methyl-1H-benzo[d]imidazol-4-yl)-6-((R)-2-aminopropylsulfonyl)-2-(2H-tetrazol-5-yl)benzenesulfonamide]
[1]
  IC50: 0.582 nM
[2]
  IC50: 0.84 nM
[3]
  P. aeruginosa expressing IMP-1, efflux+ (MB9798) MITC95: 2.563 µM
  Efflux ratio: 2.88
[4]
  P. aeruginosa expressing IMP-1, efflux− (MB9799) MITC95: 0.8906 µM
[5]
  IC50: 0.696 nM
[6]
  Klebsiella pneumoniae MITC95: 1.781 µM
[7]
  Serratia marcescens MITC95: 0.8906 µM
[8]
  Escherichia coli MITC95: 0.5 µM

## NC[C@H](O)CS(=O)(=O)c1ccc(-c2cccc3sc(N)nc23)c(-c2nn[nH]n2)c1S(N)(=O)=O [Example 281, 6-((S)-3-amino-2-hydroxypropylsulfonyl)-3-(2-aminobenzo[d]thiazol-4-yl)-2-(2H-tetrazol-5-yl)benzenesulfonamide]
[1]
  IC50: 0.0561 nM
[3]
  P. aeruginosa expressing IMP-1, efflux+ (MB9798) MITC95: 0.3906 µM
[4]
  P. aeruginosa expressing IMP-1, efflux− (MB9799) MITC95: 0.7813 µM
[5]
  IC50: 0.134 nM
[6]
  Klebsiella pneumoniae MITC95: 1.563 µM
[7]
  Serratia marcescens MITC95: 0.7813 µM
[8]
  Escherichia coli MITC95: 0.7813 µM

## NC(=O)N1CC(S(=O)(=O)c2ccc(-c3ccc(NS(=O)(=O)C4CC4)cc3)c(-c3nn[nH]n3)c2S(N)(=O)=O)C1 [Example 246, 3-((4′-(cyclopropanesulfonamido)-3-sulfamoyl-2-(2H-tetrazol-5-yl)-[1,1′-biphenyl]-4-yl)sulfonyl)azetidine-1-carboxamide]
[2]
  IC50: 0.103 nM
[3]
  P. aeruginosa expressing IMP-1, efflux+ (MB9798) MITC95: 12.5 µM
[4]
  P. aeruginosa expressing IMP-1, efflux− (MB9799) MITC95: 3.125 µM
[5]
  IC50: 0.139 nM
[6]
  Klebsiella pneumoniae MITC95: 25 µM
[7]
  Serratia marcescens MITC95: 12.5 µM
[8]
  Escherichia coli MITC95: 50 µM

## CNc1ncc(-c2ccc(S(=O)(=O)C3CNC3)c(S(N)(=O)=O)c2-c2nnn[nH]2)cn1.O=C(O)C(F)(F)F [Example 106, 3-((4-(2-(methylamino)pyrimidin-5-yl)-2-sulfamoyl-3-(1H-tetrazol-5-yl)phenyl)sulfonyl)azetidin-1-ium 2,2,2-trifluoroacetate]
[3]
  P. aeruginosa expressing IMP-1, efflux+ (MB9798) MITC95: 6.25 µM
  Efflux ratio: 4.00
[4]
  P. aeruginosa expressing IMP-1, efflux− (MB9799) MITC95: 1.563 µM
[5]
  IC50: 1.59 nM
[6]
  Klebsiella pneumoniae expressing VIM-1 (IHMA599644) MITC95: 6.25 µM
[7]
  Serratia marcescens expressing IMP-1 (CL5741) MITC95: 3.125 µM
[8]
  Escherichia coli expressing NDM-1 (CLB30016) MITC95: 12.5 µM

## NCc1cncc(-c2ccc(S(=O)(=O)C3CNC3)c(S(N)(=O)=O)c2-c2nnn[nH]2)c1.O=C(O)C(F)(F)F [Example 107, 3-((4-(5-(aminomethyl)pyridin-3-yl)-2-sulfamoyl-3-(1H-tetrazol-5-yl)phenyl)sulfonyl)azetidin-1-ium 2,2,2-trifluoroacetate]
[3]
  P. aeruginosa expressing IMP-1, efflux+ (MB9798) MITC95: 12.5 µM
  Efflux ratio: 4.00
[4]
  P. aeruginosa expressing IMP-1, efflux− (MB9799) MITC95: 3.125 µM
[5]
  IC50: 28.3 nM
[6]
  Klebsiella pneumoniae expressing VIM-1 (IHMA599644) MITC95: 3.125 µM
[7]
  Serratia marcescens expressing IMP-1 (CL5741) MITC95: 6.25 µM
[8]
  Escherichia coli expressing NDM-1 (CLB30016) MITC95: 1.563 µM

## NS(=O)(=O)c1c(S(=O)(=O)C2CNC2)ccc(C2=CC3C=NNC3N=C2)c1-c1nnn[nH]1.O=C(O)C(F)(F)F (stereo not shown) [Example 108, 3-((4-(3a,7a-dihydro-1H-pyrazolo[3,4-b]pyridin-5-yl)-2-sulfamoyl-3-(1H-tetrazol-5-yl)phenyl)sulfonyl)azetidin-1-ium 2,2,2-trifluoroacetate]
[3]
  P. aeruginosa expressing IMP-1, efflux+ (MB9798) MITC95: 25 µM
  Efflux ratio: 15.99
[4]
  P. aeruginosa expressing IMP-1, efflux− (MB9799) MITC95: 1.563 µM
[5]
  IC50: 0.612 nM
[6]
  Klebsiella pneumoniae expressing VIM-1 (IHMA599644) MITC95: 6.25 µM
[7]
  Serratia marcescens expressing IMP-1 (CL5741) MITC95: 3.125 µM
[8]
  Escherichia coli expressing NDM-1 (CLB30016) MITC95: 6.25 µM

## NS(=O)(=O)c1c(S(=O)(=O)C2CNC2)ccc(-c2ccc(CO)nc2)c1-c1nnn[nH]1.O=C(O)C(F)(F)F [Example 111, 3-((4-(6-(hydroxymethyl)pyridin-3-yl)-2-sulfamoyl-3-(1H-tetrazol-5-yl)phenyl)sulfonyl)azetidin-1-ium 2,2,2-trifluoroacetate]
[3]
  P. aeruginosa expressing IMP-1, efflux+ (MB9798) MITC95: 6.25 µM
  Efflux ratio: 4.00
[4]
  P. aeruginosa expressing IMP-1, efflux− (MB9799) MITC95: 1.563 µM
[5]
  IC50: 0.96 nM
[6]
  Klebsiella pneumoniae expressing VIM-1 (IHMA599644) MITC95: 6.25 µM
[7]
  Serratia marcescens expressing IMP-1 (CL5741) MITC95: 3.125 µM
[8]
  Escherichia coli expressing NDM-1 (CLB30016) MITC95: 3.125 µM

## Nc1cnccc1-c1ccc(S(=O)(=O)C2CNC2)c(S(N)(=O)=O)c1-c1nnn[nH]1.O=C(O)C(F)(F)F [Example 105, 3-((4-(3-aminopyridin-4-yl)-2-sulfamoyl-3-(1H-tetrazol-5-yl)phenyl)sulfonyl)azetidin-1-ium 2,2,2-trifluoroacetate]
[3]
  P. aeruginosa expressing IMP-1, efflux+ (MB9798) MITC95: 3.125 µM
  Efflux ratio: 2.00
[4]
  P. aeruginosa expressing IMP-1, efflux− (MB9799) MITC95: 1.563 µM
[5]
  IC50: 0.759 nM
[6]
  Klebsiella pneumoniae expressing VIM-1 (IHMA599644) MITC95: 3.125 µM
[7]
  Serratia marcescens expressing IMP-1 (CL5741) MITC95: 1.563 µM
[8]
  Escherichia coli expressing NDM-1 (CLB30016) MITC95: 3.125 µM

## Nc1nc2nccc(-c3ccc(S(=O)(=O)C4CNC4)c(S(N)(=O)=O)c3-c3nnn[nH]3)c2[nH]1 [Example 302]
[3]
  P. aeruginosa expressing IMP-1, efflux+ (MB9798) MITC95: 200 µM
  Efflux ratio: 16.00
[4]
  P. aeruginosa expressing IMP-1, efflux− (MB9799) MITC95: 12.5 µM
[5]
  IC50: 9.99 nM
[6]
  Klebsiella pneumoniae MITC95: 6.25 µM
[7]
  Serratia marcescens MITC95: 12.5 µM
[8]
  Escherichia coli MITC95: 3.125 µM

## C[C@@H](CN)S(=O)(=O)c1ccc(-c2cccc3nc(N)[nH]c23)c(-c2nn[nH]n2)c1S(N)(=O)=O [Example 278, 3-(2-amino-3H-benzo[d]imidazol-4-yl)-6-((S)-1-aminopropan-2-ylsulfonyl)-2-(2H-tetrazol-5-yl)benzenesulfonamide]
[3]
  P. aeruginosa expressing IMP-1, efflux+ (MB9798) MITC95: 1.563 µM
  Efflux ratio: 2.00
[4]
  P. aeruginosa expressing IMP-1, efflux− (MB9799) MITC95: 0.7813 µM
[5]
  IC50: 0.365 nM
[6]
  Klebsiella pneumoniae MITC95: 1.563 µM
[7]
  Serratia marcescens MITC95: 0.7813 µM
[8]
  Escherichia coli MITC95: 0.3906 µM

## Nc1nc2cc(-c3ccc([S+]([O-])C4CNC4)c(S(N)(=O)=O)c3-c3nn[nH]n3)ccc2[nH]1 (stereo not shown) [Example 11, 3-(2-amino-1H-benzo[d]imidazol-5-yl)-6-(azetidin-3-ylsulfinyl)-2-(2H-tetrazol-5-yl)benzenesulfonamide]
[3]
  P. aeruginosa expressing IMP-1, efflux+ (MB9798) MITC95: 3.125 µM
  Efflux ratio: 8.00
[4]
  P. aeruginosa expressing IMP-1, efflux− (MB9799) MITC95: 0.3906 µM
[5]
  IC50: 1.86 nM
[6]
  Klebsiella pneumoniae expressing VIM-1 (IHMA599644) MITC95: 0.3906 µM
[7]
  Serratia marcescens expressing IMP-1 (CL5741) MITC95: 0.7813 µM
[8]
  Escherichia coli expressing NDM-1 (CLB30016) MITC95: 0.3906 µM
